Test results: patent US20200078468A1, “NEUROTENSIN RECEPTOR BINDING CONJUGATES AND FORMULATIONS THEREOF” (priority 2016, published 2020)
Square brackets hold non-standard residues; d marks the D form. Peptide text beside a SMILES is read from it. * marks the point of attachment. X2 = COc1cc2cc(c1Cl)N(C)C(=O)C[C@H](OC(=O)[C@H](C)N(C)C(=O)CCS*)[C@]1(C)O[C@H]1[C@H](C)[C@@H]1C[C@@](O)(NC(=O)O1)[C@H](OC)/C=C/C=C(\C)C2; X3 = COc1cccc2c1C(=O)c1c(O)c3c(c(O)c1C2=O)C[C@@](O)(C(=O)CO)C[C@@H]3O[C@H]1C[C@H](NC(=O)OCCS*)[C@H](O)[C@H](C)O1; Pen = CC(C)(S)[C@H](N)C(=O)O; Tle = CC(C)(C)[C@H](N)C(=O)O

What was measured:
human NTSR1 = target: T1, human NTSR1 (Homo sapiens, UniProt P30989); test: radioligand-receptor binding assay, [125I] labeled neurotensin (Eurofins Panlabs); settings: [125I] neurotensin 0.02 nM, membranes from NTSR1 expressing HEK-293 cells, 45 minute incubation, Cheng and Prusoff; read-out: NTSR1 binding Ki
T1 construct: host or cells: HEK-293 cells (membrane preparations)
Description: Conjugates were assessed in an in vitro assay evaluating binding to NTSR1. A radioligand-receptor binding assay was conducted at Eurofins Panlabs (Taiwan) to determine the affinity of conjugates described herein to NTSR1. The assay measures binding of radiolabeled ligand, [^125I] labeled neurotensin, to human NTSR1 using membrane preparations from NTSR1 expressing HEK-293 cells (Human embryonic kidney cells 293). Membranes were incubated with radiolabeled neurotensin (0.02 nM) in the presence of conjugate/compound starting at a dose of either 100 nM, or 10 nM, using 3× serial dilutions to obtain a 6-pt curve. After a 45 minute incubation, membranes were filtered and washed 3× and counted to determine the remaining [^125I] neurotensin bound to the receptor. IC50 values were determined by a non-linear, least squares regression analysis using MathIQ™ (ID Business Solutions Ltd., UK). The Ki values were calculated using the equation of Cheng and Prusoff (Cheng and Prusoff, Biochem. Pharmacol. 22:3099-3108, 1973) using the observed IC50 of the tested conjugate/compound, the concentration of radioligand employed in the assay, and the historical values for the Kd of the ligand obtained at Eurofins.

[1] = system: SW48 (human colon cancer cells); test: inhibition of SW48 cell proliferation (CellTiter Glo); assay type: cell-based; settings: NTSR1 targeted compound; 72 hrs; read-out: SW-48 proliferation IC50
Procedure, shortened: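 Cells plated at 5,000/well and grown 24 hrs were exposed to conjugates for 72 hrs at 37° C, 5% CO2, in a ten-point three-fold series starting at 10 μM; vehicle was 0.01% DMSO. Proliferation was read by CellTiter Glo. % inhibition was taken relative to vehicle, with IC50 from four-parameter nonlinear regression.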

T1 sequence (P30989 whole entry): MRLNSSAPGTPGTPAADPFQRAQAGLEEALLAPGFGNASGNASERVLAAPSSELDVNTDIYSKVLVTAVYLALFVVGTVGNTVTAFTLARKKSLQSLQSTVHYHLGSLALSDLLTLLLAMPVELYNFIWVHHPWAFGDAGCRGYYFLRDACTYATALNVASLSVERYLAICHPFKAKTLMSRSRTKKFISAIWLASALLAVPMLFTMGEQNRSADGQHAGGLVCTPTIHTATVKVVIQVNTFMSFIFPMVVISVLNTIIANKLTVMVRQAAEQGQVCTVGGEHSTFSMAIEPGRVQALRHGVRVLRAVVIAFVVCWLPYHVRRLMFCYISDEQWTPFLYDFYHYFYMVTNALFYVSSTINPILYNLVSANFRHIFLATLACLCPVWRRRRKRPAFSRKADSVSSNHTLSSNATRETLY

COc1cc2cc(c1Cl)N(C)C(=O)C[C@H](OC(=O)[C@H](C)N(C)C(=O)CCSC1CC(=O)N(CCCNC(=O)CNC(=O)[C@H](CC(C)C)NC(=O)[C@H](Cc3ccccc3)NC(=O)CNC(=O)CCCCCN3C(=O)CC(SCCC(=O)NCCCC[C@H](NC(C)=O)C(=O)N4CCC[C@H]4C(=O)N[C@H](CCCNC(=N)N)C(=O)N[C@@H](CCN)C(=O)N4CCC[C@H]4C(=O)N[C@@H](Cc4ccc(O)cc4)C(=O)N[C@H](C(=O)N[C@@H](CC(C)C)C(=O)O)C(C)(C)C)C3=O)C1=O)[C@]1(C)O[C@H]1[C@H](C)[C@@H]1C[C@@](O)(NC(=O)O1)[C@H](OC)/C=C/C=C(\C)C2 (stereo partly shown) [Compound 30]
Ki (human NTSR1): 4.23 nM
IC50 [1]: 42.7 nM

COc1cc2cc(c1Cl)N(C)C(=O)C[C@H](OC(=O)[C@H](C)N(C)C(=O)CCSC1CC(=O)N(CCCNC(=O)CNC(=O)[C@H](CC(C)C)NC(=O)[C@H](Cc3ccccc3)NC(=O)CNC(=O)CCCCCN3C(=O)CC(SCCC(=O)NCCCC[C@H](NC(C)=O)C(=O)N4CCC[C@H]4C(=O)N[C@H](CCCNC(=N)N)C(=O)N[C@@H](CCCNC(=N)N)C(=O)N4CCC[C@H]4C(=O)N[C@@H](Cc4ccc(O)cc4)C(=O)N[C@H](C(=O)N[C@@H](CC(C)C)C(=O)O)C(C)(C)C)C3=O)C1=O)[C@]1(C)O[C@H]1[C@H](C)[C@@H]1C[C@@](O)(NC(=O)O1)[C@H](OC)/C=C/C=C(\C)C2 (stereo partly shown) [Compound 29]
Ki (human NTSR1): 1.77 nM
IC50 [1]: 22 nM

COc1cc2cc(c1Cl)N(C)C(=O)C[C@H](OC(=O)[C@H](C)N(C)C(=O)CCSC1CC(=O)N(CCCNC(=O)CNC(=O)[C@H](CC(C)C)NC(=O)[C@H](Cc3ccccc3)NC(=O)CNC(=O)CCC(=O)NCCCC[C@H](NC(=O)c3ccc(C(C)=O)cc3)C(=O)N3CCC[C@H]3C(=O)N(C)[C@@H](CCCNC(=N)N)C(=O)N[C@@H](CCCNC(=N)N)C(=O)N3CCC[C@H]3C(=O)N[C@@H](Cc3ccc(O)cc3)C(=O)N[C@H](C(=O)N[C@@H](CC(C)C)C(=O)O)C(C)(C)C)C1=O)[C@]1(C)O[C@H]1[C@H](C)[C@@H]1C[C@@](O)(NC(=O)O1)[C@H](OC)/C=C/C=C(\C)C2 (stereo partly shown) [Compound 28]
Ki (human NTSR1): 0.67 nM
IC50 [1]: 5.9 nM

COc1cc2cc(c1Cl)N(C)C(=O)C[C@H](OC(=O)[C@H](C)N(C)C(=O)CCSC1CC(=O)N(CCCNC(=O)CNC(=O)[C@H](CC(C)C)NC(=O)[C@H](Cc3ccccc3)NC(=O)CNC(=O)CCCCCN3C(=O)CC(SC(C)(C)[C@H](NC(C)=O)C(=O)N4CCC[C@H]4C(=O)N[C@@H](CCCNC(=N)N)C(=O)N[C@@H](CCCNC(=N)N)C(=O)N4CCC[C@H]4C(=O)N[C@@H](Cc4ccc(O)cc4)C(=O)N[C@H](C(=O)N[C@@H](CC(C)C)C(=O)O)C(C)(C)C)C3=O)C1=O)[C@]1(C)O[C@H]1[C@H](C)[C@@H]1C[C@@](O)(NC(=O)O1)[C@H](OC)/C=C/C=C(\C)C2 (stereo partly shown) [Compound 16]
Ki (human NTSR1): 1.64 nM
IC50 [1]: 15 nM

COc1cccc2c1C(=O)c1c(O)c3c(c(O)c1C2=O)C[C@@](O)(C(=O)CO)C[C@@H]3O[C@H]1C[C@H](NC(=O)OCCSSC(C)(C)[C@H](NC(C)=O)C(=O)N2CCC[C@H]2C(=O)N[C@@H](CCCNC(=N)N)C(=O)N[C@@H](CCCNC(=N)N)C(=O)N2CCC[C@H]2C(=O)N[C@@H](Cc2ccc(O)cc2)C(=O)N[C@H](C(=O)N[C@@H](CC(C)C)C(=O)O)C(C)(C)C)[C@H](O)[C@H](C)O1 [Compound 51] (Ac-[Pen](X3)PRRPY[Tle]L-OH)
Ki (human NTSR1): 1.34 nM
IC50 [1]: 1600 nM

COc1cc2cc(c1Cl)N(C)C(=O)C[C@H](OC(=O)[C@H](C)N(C)C(=O)CCSSC(C)(C)[C@H](NC(C)=O)C(=O)N1CCC[C@H]1C(=O)N[C@@H](CCCNC(=N)N)C(=O)N[C@@H](CCCNC(=N)N)C(=O)N1CCC[C@H]1C(=O)N[C@@H](Cc1ccc(O)cc1)C(=O)N[C@H](C(=O)N[C@@H](CC(C)C)C(=O)O)C(C)(C)C)[C@]1(C)O[C@H]1[C@H](C)[C@@H]1C[C@@](O)(NC(=O)O1)[C@H](OC)/C=C/C=C(\C)C2 [Compound 12] (Ac-[Pen](X2)PRRPY[Tle]L-OH)
Ki (human NTSR1): 1.03 nM
IC50 [1]: 15 nM

COc1cc2cc(c1Cl)N(C)C(=O)C[C@H](OC(=O)[C@H](C)N(C)C(=O)CCSC1CC(=O)N(CCCNC(=O)CNC(=O)[C@H](CC(C)C)NC(=O)[C@H](Cc3ccccc3)NC(=O)CNC(=O)CCCCCN3C(=O)CC(SCCC(=O)NCCCC[C@H](NC(C)=O)C(=O)N4CCC[C@H]4C(=O)N[C@H](CCCNC(=N)N)C(=O)N[C@@H](CCCNC(=N)N)C(=O)N4CCC[C@H]4C(=O)N[C@@H](Cc4ccc(O)cc4)C(=O)N[C@H](C(=O)N[C@@H](C[Si](C)(C)C)C(=O)O)C(C)(C)C)C3=O)C1=O)[C@]1(C)O[C@H]1[C@H](C)[C@@H]1C[C@@](O)(NC(=O)O1)[C@H](OC)/C=C/C=C(\C)C2 (stereo partly shown) [Compound 40]
Ki (human NTSR1): 0.36 nM

CC[C@H](C)[C@H](NC(=O)[C@@H](Cc1ccc(O)cc1)NC(=O)[C@@H]1CCCN1C(=O)[C@H](CCCNC(=N)N)NC(=O)[C@@H](CCCNC(=N)N)NC(=O)[C@@H]1CCCN1C(=O)[C@H](CCCCNC(=O)CCSC1CC(=O)N(CCCCCC(=O)NCC(=O)N[C@@H](Cc2ccccc2)C(=O)N[C@@H](CC(C)C)C(=O)NCC(=O)NCCCN2C(=O)CC(SCCC(=O)N(C)[C@@H](C)C(=O)O[C@H]3CC(=O)N(C)c4cc(cc(OC)c4Cl)C/C(C)=C/C=C/[C@@H](OC)[C@@]4(O)C[C@H](OC(=O)N4)[C@@H](C)[C@@H]4O[C@@]34C)C2=O)C1=O)NC(C)=O)C(=O)N[C@@H](C[Si](C)(C)C)C(=O)O (stereo partly shown) [Compound 45]
Ki (human NTSR1): > 10 nM

CC[C@H](C)[C@H](NC(=O)[C@H](Cc1c[nH]c2ccccc12)NC(=O)[C@@H]1CCCN1C(=O)[C@H](CCCNC(=N)N)NC(=O)[C@@H](CCCNC(=N)N)NC(=O)[C@@H]1CCCN1C(=O)[C@H](CCCCNC(=O)CCSC1CC(=O)N(CCCCCC(=O)NCC(=O)N[C@@H](Cc2ccccc2)C(=O)N[C@@H](CC(C)C)C(=O)NCC(=O)NCCCN2C(=O)CC(SCCC(=O)N(C)[C@@H](C)C(=O)O[C@H]3CC(=O)N(C)c4cc(cc(OC)c4Cl)C/C(C)=C/C=C/[C@@H](OC)[C@@]4(O)C[C@H](OC(=O)N4)[C@@H](C)[C@@H]4O[C@@]34C)C2=O)C1=O)NC(C)=O)C(=O)N[C@@H](C[Si](C)(C)C)C(=O)O (stereo partly shown) [Compound 43]
Ki (human NTSR1): 1.31 nM

CO[C@H]1C(=O)[C@]2(C)[C@@H](OC)C[C@H]3OC[C@@]3(OC(C)=O)[C@H]2[C@H](OC(=O)c2ccccc2)[C@]2(O)C[C@H](OC(=O)[C@H](OC(=O)CNC(=O)[C@H](CC(C)C)NC(=O)[C@H](Cc3ccccc3)NC(=O)CNC(=O)CCCCCN3C(=O)CC(SC(C)(C)[C@H](NC(C)=O)C(=O)N4CCC[C@H]4C(=O)N[C@@H](CCCNC(=N)N)C(=O)N[C@@H](CCCNC(=N)N)C(=O)N4CCC[C@H]4C(=O)N[C@@H](Cc4ccc(O)cc4)C(=O)N[C@H](C(=O)N[C@@H](CC(C)C)C(=O)O)C(C)(C)C)C3=O)[C@@H](NC(=O)OC(C)(C)C)c3ccccc3)C(C)=C1C2(C)C (stereo partly shown) [Compound 3]
Ki (human NTSR1): 1.64 nM

COc1cc2cc(c1Cl)N(C)C(=O)C[C@H](OC(=O)[C@H](C)N(C)C(=O)CCSC1CC(=O)N(CCCNC(=O)CNC(=O)[C@H](CC(C)C)NC(=O)[C@H](Cc3ccccc3)NC(=O)CNC(=O)CCCCCN3C(=O)CC(SCCC(=O)NCCCC[C@H](NC(C)=O)C(=O)N4CCC[C@H]4C(=O)N[C@H](CCCNC(=N)N)C(=O)N[C@@H](CCCNC(=N)N)C(=O)N4CCC[C@H]4C(=O)N[C@@H](Cc4ccc(O)cc4)C(=O)N[C@H](C(=O)N[C@@H](C[Si](C)(C)C)C(=O)O)C4CCCCC4)C3=O)C1=O)[C@]1(C)O[C@H]1[C@H](C)[C@@H]1C[C@@](O)(NC(=O)O1)[C@H](OC)/C=C/C=C(\C)C2 (stereo partly shown) [Compound 41]
Ki (human NTSR1): 0.89 nM

CC[C@H](C)[C@H](NC(=O)[C@H](Cc1ccc(O)c(O)c1)NC(=O)[C@@H]1CCCN1C(=O)[C@H](CCCNC(=N)N)NC(=O)[C@@H](CCCNC(=N)N)NC(=O)[C@@H]1CCCN1C(=O)[C@H](CCCCNC(=O)CCSC1CC(=O)N(CCCCCC(=O)NCC(=O)N[C@@H](Cc2ccccc2)C(=O)N[C@@H](CC(C)C)C(=O)NCC(=O)NCCCN2C(=O)CC(SCCC(=O)N(C)[C@@H](C)C(=O)O[C@H]3CC(=O)N(C)c4cc(cc(OC)c4Cl)C/C(C)=C/C=C/[C@@H](OC)[C@@]4(O)C[C@H](OC(=O)N4)[C@@H](C)[C@@H]4O[C@@]34C)C2=O)C1=O)NC(C)=O)C(=O)N[C@@H](C[Si](C)(C)C)C(=O)O (stereo partly shown) [Compound 44]
Ki (human NTSR1): 0.23 nM

CC[C@H](C)[C@H](NC(=O)[C@H](Cc1ccc(OC)c(OC)c1)NC(=O)[C@@H]1CCCN1C(=O)[C@H](CCCNC(=N)N)NC(=O)[C@@H](CCCNC(=N)N)NC(=O)[C@@H]1CCCN1C(=O)[C@H](CCCCNC(=O)CCSC1CC(=O)N(CCCCCC(=O)NCC(=O)N[C@@H](Cc2ccccc2)C(=O)N[C@@H](CC(C)C)C(=O)NCC(=O)NCCCN2C(=O)CC(SCCC(=O)N(C)[C@@H](C)C(=O)O[C@H]3CC(=O)N(C)c4cc(cc(OC)c4Cl)C/C(C)=C/C=C/[C@@H](OC)[C@@]4(O)C[C@H](OC(=O)N4)[C@@H](C)[C@@H]4O[C@@]34C)C2=O)C1=O)NC(C)=O)C(=O)N[C@@H](C[Si](C)(C)C)C(=O)O (stereo partly shown) [Compound 46]
Ki (human NTSR1): > 10 nM
